Consider one substance from patent EP0438519B1, “THERAPEUTIC PEPTIDES” (The Administrators of The Tulane Educational Fund, priority 1988, dated 1998).

The test system of this assay is bombesin-stimulated amylase secretion. Description: Bombesin-stimulated pancreatic amylase secretion in the rat. It counts as in vivo.

For D-Phe^6BN(6-13)methylester [I00008], the “duration of inhibition of the secretion of amylase” value (5 nM of the analog, stimulated by 0.5 nM of bombesin, after bolus injection) is 150 min. For the same substance, for the setting “result in words (Fig. 3)”, the “effect on bombesin-stimulated amylase secretion” value was “potent antagonist”.
